The values that follow come from article PMC12064818, “A general assay platform to study protein pharmacology using ligand-dependent structural dynamics” (Nature Communications, 2025).

The target of the experiment is C. elegans iPGM-C-HiBiT (Caenorhabditis elegans, UniProt G5EFZ1). The experiment can be described thus: C. elegans iPGM fluorescent polarization competition-binding assay (Ce-2d-FL probe). On the set-up: cDNA, containing Phe2-Ile539 and the 6xHis tag; His6 (C); made in house; host or cells: E. coli. Here is the method: All reagents were prepared on ice, protected from light. […] Compounds and controls were added with a pintool to each plate as described in Supplementary Data 8. Assay plates were incubated for 20 min at ambient temperature. […] Microtiter plates were allowed to reach equilibrium (30 min incubation at ambient temperature) while protected from light. Fluorescence polarization was measured with the same reader settings as above. Data were row-wise normalized to no enzyme control as -100% activity and enzyme + DMSO vehicle control as neutral control. See Supplementary Table 7 for additional details.
Supplementary Table 7. Protocol for Co- factor independent phosphoglycerate mutase (iPGM) fluorescent polarization competition-biding assay
Supplementary Table 7: Protocol for C. elegans co-factor independent phosphoglycerate m utase (iPGM) fluorescent polarization com petition-binding assay
Sequence Param eter Value Description
No enzym e control (colum n 1) and enzym e solution (10 nM Ce iPGM-C-HiBiT dialyzed 1 Reagent 4 µLagainst Zn/Mn final assay concentration) in assay buffer + 0.05% IGEPAL; black/solid bottom , m edium bind, high base plates (Greiner), dispensed with BioRaptr 2 […]
Test com pounds: m acrocyclic peptides at 5 m M stock concentration in 16- pt, 1:3 titration […]
com pounds transferred to respective colum ns with Pintool
3 Incubation 20 m in Incubate enzym e + com pounds at am bient tem p for 20 m in, protected from light 4 Pre-Read Spark Measure fluorescence polarization of fluorescein (X480, M535) on Spark m ultimode m icroplate reader […]
dispensed with BioRaptr 2
6 Incubation 30 m in Am bient tem perature, protected from light
7 Detector Spark Measure fluorescence polarization of fluorescein (X480, M535) on Spark m ultimode m icroplate reader
Assay buffer: 30 m M Tris-HCl, pH 8.0; 5 m M MgSO4; 20 m M KCl; 0.05% IGEPAL. All solutions filtered through 0.22 1 µm syringe filter prior to dispense.
Measure fluorescence polarization of fluorescein on Spark m ultimode m icroplate reader with FP protocol: Excitation […]
4/7 20.0; G-Factor “Manual” = 1.000; Blank “Not Defined”.
Advanced Settings: Flashes = 30; Gain “Optim al”; Mirror “Autom atic”; Z-position [um ] “Manual” = 20000; Settle Tim e […]
Fluorescence polarization ligand solution: 30 m M Tris-HCl, pH 8.0; 5 m M MgSO4; 20 m M KCl; 0.05% IGEPAL; 15 […]
Solution filtered through 0.22
µm syringe filter prior to dispense.

Where [1] appears, read: C. elegans iPGM-C-HiBiT FP 10 nM, ligand […] FP.

Sequence of C. elegans iPGM-C-HiBiT (G5EFZ1 2-539): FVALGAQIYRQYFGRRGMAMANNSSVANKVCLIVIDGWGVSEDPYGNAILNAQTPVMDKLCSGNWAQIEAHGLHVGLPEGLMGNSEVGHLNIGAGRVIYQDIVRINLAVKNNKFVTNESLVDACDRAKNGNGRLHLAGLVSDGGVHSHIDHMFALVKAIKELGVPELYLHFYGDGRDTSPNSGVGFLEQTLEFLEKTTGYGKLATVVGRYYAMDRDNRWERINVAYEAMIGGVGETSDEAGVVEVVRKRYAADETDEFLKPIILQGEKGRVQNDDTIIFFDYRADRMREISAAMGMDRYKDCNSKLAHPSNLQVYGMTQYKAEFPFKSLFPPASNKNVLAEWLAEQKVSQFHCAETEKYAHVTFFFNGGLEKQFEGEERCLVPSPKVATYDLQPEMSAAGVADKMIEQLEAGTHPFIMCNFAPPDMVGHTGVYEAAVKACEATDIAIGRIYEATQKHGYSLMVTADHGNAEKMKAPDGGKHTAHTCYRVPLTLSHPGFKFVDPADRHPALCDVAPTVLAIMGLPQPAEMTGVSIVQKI

What is called IC50 is the concentration that gives 50% inhibition. `CC(C)C[C@H](NC(=O)[C@H](Cc1ccc(O)cc1)NC(=O)[C@@H]1CSCC(=O)N[C@H](Cc2ccc(O)cc2)C(=O)N[C@@H](CC(=O)O)C(=O)N[C@@H](Cc2ccc(O)cc2)C(=O)N2CCC[C@H]2C(=O)NCC(=O)N[C@@H](CC(=O)O)C(=O)N[C@@H](Cc2ccc(O)cc2)C(=O)N1)C(=O)N[C@@H](Cc1ccc(O)cc1)C(=O)NCC(=O)N[C@H](C(=O)N[C@@H](CS)C(=O)NCC(N)=O)[C@@H](C)O` [Ce-2] showed an IC50 of 0.0347 µM. Also, under setting [1], the “Standard assay statistics Ave RLU” value turned out to be 67.8 RLU, the “Standard assay statistics S:B” value stood at 1.4, the “Standard assay statistics S:N” value is recorded as -2.4 and the “Standard assay statistics Z’” value is reported as -0.978.
